Literature values in patent US20260216277A1, “TOPICAL COMPOSITIONS AND METHODS FOR TREATING ALOPECIA” (priority 2023, published 2026).

Test system: radiation-induced alopecia
Conditions: whole brain radiotherapy

In the case of CC1(C)CC(O)CC(C)(C)N1[O] [Tempol, 4-hydroxy-2,2,6,6-tetramethylpiperidine-1-oxyl], the “Safety and tolerability of topical application to the scalp before radiation” value is listed as “relatively safe and well tolerated”.
